Measurements as given in US6413913B1, “Thiono-thiochroman and -dihydrobenzothiophene compounds as herbicidal agents” (BASF Corporation, priority 1999, dated 2002).

How the values were obtained:
[1] = test system: ABUTH (Velvetleaf); experiment: Postemergence herbicidal evaluation; assay type: in vivo, Abutilon theophrasti, Medic.; conditions: rated about 2-3 weeks after treatment, scale 0-9, averaged
Experimental: (§1) Seedling plants are grown in jiffy flats for about two weeks. The test compounds are dispersed in 80/20 (v/v) acetone/water mixtures containing 1.0% SUN-IT® II, a methylated seed oil, in sufficient quantities to provide the equivalent of about 0.006 kg/ha to 0.800 kg/ha of active compound when applied to the plants through a spray nozzle operating at 40 psi for a predetermined time. After spraying, the plants are placed on greenhouse benches and are cared for in accordance with conventional greenhouse procedures. Approximately two—three weeks after treatment, the seedling plants are examined and rated according to the rating system set forth below. Where more than one test is involved for a given compound, the data are averaged.

[2] = test system: AMBEL (Ragweed, Common); experiment: Postemergence herbicidal evaluation; assay type: in vivo, Ambrosia artemisifolia, L.; conditions: rated about 2-3 weeks after treatment, scale 0-9, averaged
Experimental: as §1

[3] = test system: ECHCG (Barnyardgrass); experiment: Postemergence herbicidal evaluation; assay type: in vivo, Echinochloa crus-galli, (L.) Beau; conditions: rated about 2-3 weeks after treatment, scale 0-9, averaged
Experimental: as §1

[4] = test system: PANDI (Panicum, Fall); experiment: Postemergence herbicidal evaluation; assay type: in vivo, Panicum dichotomiflorum, Michx.; conditions: rated about 2-3 weeks after treatment, scale 0-9, averaged
Experimental: as §1

[5] = test system: SETVI (Foxtail, Green); experiment: Postemergence herbicidal evaluation; assay type: in vivo, Setaria viridis, (L.) Beau; conditions: rated about 2-3 weeks after treatment, scale 0-9, averaged
Experimental: as §1

[6] = test system: ABUTH (Velvetleaf); experiment: Preemergence herbicidal evaluation; assay type: in vivo, Abutilon theophrasti, Medic.; conditions: rated about 2-4 weeks after treatment, scale 0-9
Source text: (§2) In these tests, seeds of a variety of monocotyledonous and dicotyledonous plants are separately mixed with potting soil and planted on top of approximately one inch of soil in separate pint cups. After planting, the cups are sprayed with the selected aqueous acetone solution containing test compound in sufficient quantity to provide the equivalent of about 0.0125 to 0.800 kg per hectare of test compound per cup. The treated cups are then placed on greenhouse benches, watered and cared for in accordance with conventional greenhouse procedures. Approximately two—four weeks after treatment, the tests are terminated and each cup is examined and rated according to the rating system provided in Example 6.

[7] = test system: AMBEL (Ragweed, Common); experiment: Preemergence herbicidal evaluation; assay type: in vivo, Ambrosia artemisifolia, L.; conditions: rated about 2-4 weeks after treatment, scale 0-9
Source text: as §2

[8] = test system: IPOHE (Morningglory, Ivyleaf); experiment: Preemergence herbicidal evaluation; assay type: in vivo, Ipomoea hederacea, (L) Jacq.; conditions: rated about 2-4 weeks after treatment, scale 0-9
Source text: as §2

[9] = test system: ECHCG (Barnyardgrass); experiment: Preemergence herbicidal evaluation; assay type: in vivo, Echinochloa crus-galli, (L.) Beau; conditions: rated about 2-4 weeks after treatment, scale 0-9
Source text: as §2

[10] = test system: PANDI (Panicum, Fall); experiment: Preemergence herbicidal evaluation; assay type: in vivo, Panicum dichotomiflorum, Michx.; conditions: rated about 2-4 weeks after treatment, scale 0-9
Source text: as §2

[11] = test system: SETVI (Foxtail, Green); experiment: Preemergence herbicidal evaluation; assay type: in vivo, Setaria viridis, (L.) Beau; conditions: rated about 2-4 weeks after treatment, scale 0-9
Source text: as §2

[12] = test system: ZEAMX (Corn, Field); experiment: Preemergence herbicidal evaluation (crop); assay type: in vivo, Zea mays, L.
Source text: as §2

[13] = test system: IPOHE (Morningglory, Ivyleaf); experiment: Postemergence herbicidal evaluation; assay type: in vivo, Ipomoea hederacea, (L) Jacq.; conditions: rated about 2-3 weeks after treatment, scale 0-9, averaged
Experimental: as §1

[14] = test system: ZEAMX (Corn, Field); experiment: Postemergence herbicidal evaluation (crop); assay type: in vivo, Zea mays, L.; conditions: rated about 2-3 weeks after treatment, scale 0-9, averaged
Experimental: as §1

[15] = preemergence, 0.050 kg/ha, rated about 2-4 weeks after treatment, scale 0-9
[16] = preemergence, 0.100 kg/ha, rated about 2-4 weeks after treatment, scale 0-9

SMILES | Herbicide rating ABUTH ([1]; 0.050 kg/ha) | Herbicide rating ABUTH ([1]; 0.100 kg/ha) | Herbicide rating AMBEL ([2]; 0.050 kg/ha) | Herbicide rating AMBEL ([2]; 0.100 kg/ha) | Herbicide rating ECHCG ([3]; 0.050 kg/ha) | Herbicide rating ECHCG ([3]; 0.100 kg/ha) | Herbicide rating PANDI ([4]; 0.050 kg/ha) | Herbicide rating PANDI ([4]; 0.100 kg/ha) | Herbicide rating SETVI ([5]; 0.050 kg/ha) | Herbicide rating SETVI ([5]; 0.100 kg/ha) | Herbicide rating ABUTH ([6]; 0.050 kg/ha) | Herbicide rating ABUTH ([6]; 0.100 kg/ha) | Herbicide rating AMBEL ([7]; 0.050 kg/ha) | Herbicide rating AMBEL ([7]; 0.100 kg/ha) | Herbicide rating ECHCG ([9]; 0.050 kg/ha) | Herbicide rating ECHCG ([9]; 0.100 kg/ha) | Herbicide rating PANDI ([10]; 0.050 kg/ha) | Herbicide rating PANDI ([10]; 0.100 kg/ha) | Herbicide rating SETVI ([11]; 0.050 kg/ha) | Herbicide rating SETVI ([11]; 0.100 kg/ha) | also measured
Cc1c(C(=S)c2cnn(C)c2O)ccc2c1C(C)(C)CS2(=O)=O [Example 3] | 9.0 | 8.0 | 9.0 | 8.0 | 7.0 | 9.0 | 7.0 | 8.0 | 8.0 | 8.0 | 8.0 | 9.0 | 5.5 | 7.0 | 7.0 | 8.5 | 6.5 | 8.0 | 5.0 | 7.0 | Herbicide rating IPOHE ([8]; 0.050 kg/ha): 2.0; Herbicide rating IPOHE ([8]; 0.100 kg/ha): 2.0; Herbicide rating ZEAMX (crop injury, corn) ([12]; in vivo): 0.0
CCn1ncc(C(=S)c2ccc3c(c2C)C(C)(C)CS3(=O)=O)c1O [Example 4] | 4.0 | 7.0 | 8.0 | 8.0 | 8.0 | 8.0 | 3.0 | 9.0 | 4.0 | 7.0 | 6.0 | 9.0 | 2.0 | 9.0 | 2.0 | 9.0 | 2.0 | 7.0 | 3.0 | 3.0 | Herbicide rating IPOHE ([13]; 0.050 kg/ha): 4.0; Herbicide rating IPOHE ([13]; 0.100 kg/ha): 4.0; Herbicide rating IPOHE ([8]; 0.050 kg/ha): 1.0; Herbicide rating IPOHE ([8]; 0.100 kg/ha): 1.0; Herbicide rating ZEAMX (crop injury, corn) ([12]; in vivo): 0.0
CCn1ncc(C(=S)c2cc(C)c3c(c2C)C(C)(C)CCS3(=O)=O)c1O [Example 2] | 9.0 | 9.0 | 6.0 | 9.0 | 5.0 | 9.0 | 5.0 | 4.0 | 9.0 | 9.0 | 3.0 | 9.0 | 2.0 | 3.0 | 0.0 | 3.0 | 5.0 | 7.0 | 4.0 | 5.0 | Herbicide rating IPOHE ([13]; 0.050 kg/ha): 2.0; Herbicide rating IPOHE ([13]; 0.100 kg/ha): 4.0; Herbicide rating IPOHE ([8]; 0.050 kg/ha): 0.0; Herbicide rating IPOHE ([8]; 0.100 kg/ha): 0.0; Herbicide rating ZEAMX (crop injury, corn) ([12]; in vivo): 0.0
CCn1ncc(C(=S)c2ccc3c(c2C)/C(=N/OC)CCS3(=O)=O)c1O [Example 1, 6-[(1-Ethyl-5-hydroxypyrazol-4-yl)thicarbonyl]-5-methylthiochroman-4-one (E) -O-Methyloxime, 1,1-Dioxide] | 7.6 | 8.0 | 8.2 | 8.4 | 8.0 | 7.8 | 6.3 | 6.5 | 8.5 | 9.0 | 7.3 | 9.0 | 8.5 | 8.8 | 5.8 | 8.3 | 8.0 | 8.5 | 6.6 | 8.4 | Herbicide rating IPOHE ([13]; 0.050 kg/ha): 2.0; Herbicide rating IPOHE ([13]; 0.100 kg/ha): 3.0; Herbicide rating ZEAMX (crop injury, corn) ([14]; 0.050 kg/ha): 1.2; Herbicide rating ZEAMX (crop injury, corn) ([14]; 0.100 kg/ha): 3.0; Herbicide rating IPOHE ([8]; 0.050 kg/ha): 2.5; Herbicide rating IPOHE ([8]; 0.100 kg/ha): 6.0; Herbicide rating ZEAMX (crop injury, corn) [12, 15]: 0.0; Herbicide rating ZEAMX (crop injury, corn) [12, 16]: 0.8
CCCS(=O)(=O)Oc1c(C(=S)c2ccc3c(c2C)/C(=N/OC)CCS3(=O)=O)cnn1CC [Example 5] | – | – | – | – | – | – | – | – | – | – | 9.0 | 9.0 | 7.0 | 9.0 | 6.0 | 6.0 | 7.0 | 7.0 | 6.0 | 6.0 | Herbicide rating ZEAMX (crop injury, corn) ([14]; 0.050 kg/ha): 0.0; Herbicide rating ZEAMX (crop injury, corn) ([14]; 0.100 kg/ha): 3.0; Herbicide rating ZEAMX (crop injury, corn) [12, 15]: 0.0; Herbicide rating ZEAMX (crop injury, corn) [12, 16]: 0.0
